Laboratory results: PubChem BioAssay (NCI)
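Growth conditions: 96-well plates. Treatment: test compound, 48 hours, 5 concentrations. Analysis: linear interpolation between bracketing concentrations; unreached endpoints set to highest concentration. TGI: total growth inhibition.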

Columns and labels:
Assay in all cases: growth of human tumour cells (NCI), 48 h
HOP-92 NSCLC = tested on: HOP-92 NSCLC
A549 NSCLC = tested on: A549 NSCLC
SR leukemia = tested on: SR leukemia
UO-31 renal = tested on: UO-31 renal
HOP-62 NSCLC = tested on: HOP-62 NSCLC
HCT-116 colon = tested on: HCT-116 colon
SF-295 CNS = tested on: SF-295 CNS
RPMI-8226 leukemia = tested on: RPMI-8226 leukemia
MOLT-4 leukemia = tested on: MOLT-4 leukemia
CAKI-1 renal = tested on: CAKI-1 renal
MDA-MB-435 = tested on: MDA-MB-435
ACHN renal = tested on: ACHN renal
BT-549 breast = tested on: BT-549 breast
UACC-62 melanoma = tested on: UACC-62 melanoma
KM12 colon = tested on: KM12 colon
NCI-H522 lung = tested on: NCI-H522 lung
HS 578T breast = tested on: HS 578T breast
SNB-19 CNS = tested on: SNB-19 CNS
SW-620 colon = tested on: SW-620 colon
A498 renal = tested on: A498 renal
HT29 colon = tested on: HT29 colon
MALME-3M melanoma = tested on: MALME-3M melanoma
MDA-N = tested on: MDA-N
UACC-257 melanoma = tested on: UACC-257 melanoma
SN12C renal = tested on: SN12C renal
EKVX NSCLC = tested on: EKVX NSCLC
NCI-H226 lung = tested on: NCI-H226 lung
NCI-H23 lung = tested on: NCI-H23 lung
COLO 205 colon = tested on: COLO 205 colon
OVCAR-8 ovarian = tested on: OVCAR-8 ovarian
PC-3 prostate = tested on: PC-3 prostate
CCRF-CEM leukemia = tested on: CCRF-CEM leukemia
SK-MEL-28 melanoma = tested on: SK-MEL-28 melanoma
SF-268 CNS = tested on: SF-268 CNS
SK-MEL-5 melanoma = tested on: SK-MEL-5 melanoma
K-562 leukemia = tested on: K-562 leukemia
LOX IMVI melanoma = tested on: LOX IMVI melanoma
IGROV1 ovarian = tested on: IGROV1 ovarian
HCT-15 colon = tested on: HCT-15 colon
U251 CNS = tested on: U251 CNS
DU-145 prostate = tested on: DU-145 prostate
OVCAR-4 ovarian = tested on: OVCAR-4 ovarian
NCI/ADR-RES ovarian = tested on: NCI/ADR-RES ovarian
OVCAR-3 ovarian = tested on: OVCAR-3 ovarian
HL-60(TB) leukemia = tested on: HL-60(TB) leukemia
786-0 renal = tested on: 786-0 renal
M14 melanoma = tested on: M14 melanoma
MCF7 breast = tested on: MCF7 breast
SK-OV-3 ovarian = tested on: SK-OV-3 ovarian
T-47D breast = tested on: T-47D breast
RXF 393 renal = tested on: RXF 393 renal
MDA-MB-231 breast = tested on: MDA-MB-231 breast
NCI-H460 lung = tested on: NCI-H460 lung
OVCAR-5 ovarian = tested on: OVCAR-5 ovarian
SNB-75 CNS = tested on: SNB-75 CNS
TK-10 renal = tested on: TK-10 renal
SK-MEL-2 melanoma = tested on: SK-MEL-2 melanoma
DMS 273 small cell lung = tested on: DMS 273 small cell lung
DLD-1 colon = tested on: DLD-1 colon
SNB-78 CNS = tested on: SNB-78 CNS
LXFL 529 NSCLC = tested on: LXFL 529 NSCLC
KM20L2 colon = tested on: KM20L2 colon
HCC-2998 colon = tested on: HCC-2998 colon
SF-539 CNS = tested on: SF-539 CNS

O=C(O)C1CCN(Cc2oc(CO)cc(=O)c2O)C1 (stereo not given)
TGI (HOP-92 NSCLC): > 100000 nM
TGI (A549 NSCLC): > 100000 nM
TGI (SR leukemia): > 100000 nM
TGI (UO-31 renal): > 100000 nM
TGI (HOP-62 NSCLC): > 100000 nM
TGI (HCT-116 colon): > 100000 nM
TGI (SF-295 CNS): > 100 µM
TGI (RPMI-8226 leukemia): > 100 µM
TGI (MOLT-4 leukemia): > 100000 nM
TGI (CAKI-1 renal): > 100000 nM
TGI (MDA-MB-435): > 100 µM
TGI (ACHN renal): > 100000 nM
TGI (BT-549 breast): > 100 µM
TGI (UACC-62 melanoma): > 100000 nM
TGI (KM12 colon): > 100000 nM
TGI (NCI-H522 lung): > 100 µM
TGI (HS 578T breast): > 100 µM
TGI (SNB-19 CNS): > 100000 nM
TGI (SW-620 colon): > 100000 nM
TGI (A498 renal): > 100 µM
TGI (HT29 colon): > 100 µM
TGI (MALME-3M melanoma): > 100000 nM
TGI (MDA-N): > 100 µM
TGI (UACC-257 melanoma): > 100000 nM
TGI (SN12C renal): > 100000 nM
TGI (EKVX NSCLC): > 100 µM
TGI (NCI-H226 lung): > 100 µM
TGI (NCI-H23 lung): > 100 µM
TGI (COLO 205 colon): > 100 µM
TGI (OVCAR-8 ovarian): > 100000 nM
TGI (PC-3 prostate): > 100 µM
TGI (CCRF-CEM leukemia): > 100000 nM
TGI (SK-MEL-28 melanoma): > 100 µM
TGI (SF-268 CNS): > 100000 nM
TGI (SK-MEL-5 melanoma): > 100000 nM
TGI (K-562 leukemia): > 100 µM
TGI (LOX IMVI melanoma): > 100000 nM
TGI (IGROV1 ovarian): > 100000 nM
TGI (HCT-15 colon): > 100000 nM
TGI (U251 CNS): > 100 µM
TGI (DU-145 prostate): > 100 µM
TGI (OVCAR-4 ovarian): > 100 µM
TGI (NCI/ADR-RES ovarian): > 100 µM
TGI (OVCAR-3 ovarian): > 100 µM
TGI (HL-60(TB) leukemia): > 100 µM
TGI (786-0 renal): > 100000 nM
TGI (M14 melanoma): > 100000 nM
TGI (MCF7 breast): > 100 µM
TGI (SK-OV-3 ovarian): > 100000 nM
TGI (T-47D breast): > 100 µM
TGI (RXF 393 renal): > 100 µM
TGI (MDA-MB-231 breast): > 100 µM
TGI (NCI-H460 lung): > 100000 nM
TGI (OVCAR-5 ovarian): > 100000 nM
TGI (SNB-75 CNS): > 100 µM
TGI (TK-10 renal): > 100 µM
TGI (SK-MEL-2 melanoma): > 100 µM

C=C1C2C[C@@H]3OC4CC5O[C@]6(CC5OC4C(C)C3OC(=O)CC3CC[C@@H]4OC5C7OC8C[C@](CCC9CC(=C)[C@H](CCC(C[C@H]1C)O2)O9)(OC7C4O3)O[C@@H]85)C[C@@H]1O[C@@]2(CC(C)[C@@H]3OC(CC(=O)CCO)C(O)C[C@@H]3O2)CC(C)[C@@H]1O6 (stereo not given in full)
TGI (HOP-92 NSCLC): 1.7 nM
TGI (A549 NSCLC): 1280 nM
TGI (SR leukemia): 1240 nM
TGI (UO-31 renal): 1170 nM
TGI (HOP-62 NSCLC): 3.4 nM
TGI (DMS 273 small cell lung): < 1 nM
TGI (HCT-116 colon): 1.11 nM
TGI (SF-295 CNS): < 0.001 µM
TGI (MOLT-4 leukemia): 2190 nM
TGI (CAKI-1 renal): 877 nM
TGI (ACHN renal): 1710 nM
TGI (DLD-1 colon): 1240 nM
TGI (UACC-62 melanoma): 181 nM
TGI (KM12 colon): 2.28 nM
TGI (NCI-H522 lung): < 0.001 µM
TGI (SNB-19 CNS): 816 nM
TGI (SW-620 colon): 1320 nM
TGI (SNB-78 CNS): 1980 nM
TGI (MALME-3M melanoma): 189 nM
TGI (UACC-257 melanoma): 1520 nM
TGI (SN12C renal): 206 nM
TGI (NCI-H226 lung): < 0.001 µM
TGI (NCI-H23 lung): < 0.001 µM
TGI (COLO 205 colon): < 0.001 µM
TGI (OVCAR-8 ovarian): 17.2 nM
TGI (CCRF-CEM leukemia): 1800 nM
TGI (LXFL 529 NSCLC): 1190 nM
TGI (KM20L2 colon): < 1 nM
TGI (SF-268 CNS): 1610 nM
TGI (SK-MEL-5 melanoma): 2.59 nM
TGI (LOX IMVI melanoma): 119 nM
TGI (IGROV1 ovarian): 1370 nM
TGI (HCT-15 colon): 1.09 nM
TGI (OVCAR-4 ovarian): < 0.001 µM
TGI (HCC-2998 colon): < 1 nM
TGI (OVCAR-3 ovarian): < 0.001 µM
TGI (786-0 renal): 1090 nM
TGI (M14 melanoma): 170 nM
TGI (SK-OV-3 ovarian): 905 nM
TGI (NCI-H460 lung): 1330 nM
TGI (SF-539 CNS): < 1 nM
TGI (OVCAR-5 ovarian): 562 nM
TGI (SK-MEL-2 melanoma): < 0.001 µM
